Measured values taken from patent US8415469B2, “Compounds and methods for kinase modulation, and indications therefor” (Plexxikon Inc., priority 2005, dated 2013).
pIC50: −log10 of the molar value. Each block holds one compound with its values, some of them ahead of it.

Legend:
Format in all cases: biochemical
Plk1 = Plk1 (Homo sapiens, UniProt P53350); experiment: AlphaScreen kinase assay, Plk1; settings: read-out: IC50, activity toward kinase Plk1
Description: (§1) AlphaScreen assay was used to screen additional kinases. The assay is similarly dependent on the phosphorylation of a peptide substrate. In this assay, an antibody that recognizes phosphorylated substrate is bound to an acceptor bead. The peptide substrate is attached to biotin, which binds to a donor head that contains streptavidin. Thus phosphorylated substrate is bound by antibody and streptavidin, bringing the donor and acceptor heads into close proximity when kinase is not inhibited. The donor produces singlet oxygen which results in emission from the acceptor when they are in close proximity. Conversely, when kinase is inhibited, the donor and acceptor beads are not associated and the emission from the acceptor is reduced.
(§2) AlphaScreen assays were done using compounds dissolved in DMSO to a concentration of 20 mM. The compounds were diluted accordingly to the desired final concentrations in each sample well, using 1:3 serial dilution for a total of 8 concentration points.

Btk = target: T1, Btk (Homo sapiens, UniProt Q06187); experiment: Z'-Lyte FRET kinase assay (Invitrogen), Btk; settings: read-out: IC50, activity toward kinase Btk
T1 construct: purchased Invitrogen (assay run by Invitrogen)

Kdr = target: T2, Kdr (Homo sapiens, UniProt P35968); experiment: Z'-Lyte FRET kinase assay (Invitrogen), Kdr; settings: read-out: IC50, activity toward kinase Kdr
T2 construct: purchased Invitrogen (assay run by Invitrogen)

Ret = target: T3, Ret (Homo sapiens, UniProt P07949); experiment: AlphaScreen kinase assay, Ret; settings: read-out: IC50, activity toward kinase Ret
T3 construct: P1378.pET-SF BI-PTP RET H661-R1012 HIS; made in house
T3 sequence (P07949 with tags, fused parts or gaps): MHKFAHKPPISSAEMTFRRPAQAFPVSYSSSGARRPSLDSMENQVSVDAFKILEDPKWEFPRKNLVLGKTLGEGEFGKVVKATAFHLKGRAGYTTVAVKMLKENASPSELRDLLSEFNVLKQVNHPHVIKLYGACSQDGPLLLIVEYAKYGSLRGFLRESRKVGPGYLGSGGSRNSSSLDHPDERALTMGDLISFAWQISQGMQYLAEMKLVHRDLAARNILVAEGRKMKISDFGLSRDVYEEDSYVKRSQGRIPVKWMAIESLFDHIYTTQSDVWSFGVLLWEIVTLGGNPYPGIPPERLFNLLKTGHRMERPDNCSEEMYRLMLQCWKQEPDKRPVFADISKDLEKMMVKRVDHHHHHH

Stk6 = target: T4, Stk6 (Homo sapiens, UniProt O14965); experiment: Z'-Lyte FRET kinase assay (Invitrogen), Stk6; settings: read-out: IC50, activity toward kinase Stk6
T4 construct: purchased Invitrogen (Carlsbad, Calif.), screening service
T4 sequence (O14965 1-403): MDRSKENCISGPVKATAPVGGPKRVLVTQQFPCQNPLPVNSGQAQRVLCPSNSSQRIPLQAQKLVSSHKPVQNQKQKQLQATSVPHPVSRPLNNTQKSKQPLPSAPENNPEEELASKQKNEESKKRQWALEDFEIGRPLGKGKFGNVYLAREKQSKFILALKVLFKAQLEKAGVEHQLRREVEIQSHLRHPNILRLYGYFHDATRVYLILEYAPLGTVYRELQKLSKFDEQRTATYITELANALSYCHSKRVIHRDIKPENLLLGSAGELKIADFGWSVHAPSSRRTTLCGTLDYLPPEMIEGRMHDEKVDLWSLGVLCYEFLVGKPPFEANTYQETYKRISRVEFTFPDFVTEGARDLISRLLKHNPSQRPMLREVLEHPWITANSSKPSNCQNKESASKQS

Jnk2 = target: T5, Jnk2 (Homo sapiens, UniProt P45984); experiment: AlphaScreen kinase assay, Jnk2; settings: read-out: IC50, activity toward kinase Jnk2
T5 construct: purchased Roche Protein Expression Group (Indianapolis, IN)
Procedure, shortened: (§3)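 Emission from acceptor beads reports phosphorylated biotin-peptide bridging antibody-coated acceptor and streptavidin donor beads; loss of signal reflects kinase inhibition. Eight-point, threefold dilution series prepared from 20 mM DMSO stocks.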

FGFR1 = target: T6, FGFR1 (Homo sapiens, UniProt P11362, C488A/C584S); experiment: AlphaScreen kinase assay, FGFR1; settings: read-out: IC50, activity toward kinase FGFR
T6 construct: P1351.pET N6 BI-PTP FGFR A458-E765-X C488A, C584S; made in house; host or cells: E. coli (PTP1B co-expressed)

B-Raf = target: T7, B-Raf (Homo sapiens, UniProt P15056); experiment: AlphaScreen kinase assay, B-Raf; settings: read-out: IC50, activity toward kinase B-Raf
T7 construct: purchased Upstate Biotechnology

Flt1 = target: T8, Flt1 (Homo sapiens, UniProt P17948); experiment: AlphaScreen kinase assay, Flt1; settings: read-out: IC50, activity toward kinase Flt1
T8 construct: P1826.pETN6 BI-PTP FLT1 M799-D1165-X WT; His6 (N); made in house; host or cells: E. coli (PTP1B co-expressed)
T8 sequence (P17948 with tags, fused parts or gaps): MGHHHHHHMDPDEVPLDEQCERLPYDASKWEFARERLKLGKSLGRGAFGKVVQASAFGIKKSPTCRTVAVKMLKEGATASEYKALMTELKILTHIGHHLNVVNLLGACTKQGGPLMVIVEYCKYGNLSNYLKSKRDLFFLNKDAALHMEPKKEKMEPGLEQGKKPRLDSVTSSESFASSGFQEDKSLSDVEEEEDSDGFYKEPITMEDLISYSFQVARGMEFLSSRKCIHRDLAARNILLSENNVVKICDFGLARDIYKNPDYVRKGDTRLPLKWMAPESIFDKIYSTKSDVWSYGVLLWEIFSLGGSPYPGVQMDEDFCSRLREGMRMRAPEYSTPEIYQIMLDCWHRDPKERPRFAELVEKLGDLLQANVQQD

Kit = target: T9, Kit (Homo sapiens, UniProt P10721); experiment: AlphaScreen kinase assay, Kit; settings: read-out: IC50, activity toward kinase Kit
T9 construct: P1332.N6 BI PTP KIT M552-K948-X COD; His6 (N); made in house; host or cells: E. coli (PTP1B co-expressed)

B-Raf V600E = target: T10, B-Raf V600E (Homo sapiens, UniProt P15056, V600E); experiment: AlphaScreen kinase assay, B-Raf V600E; settings: read-out: IC50, activity toward kinase B-Raf V600E
T10 construct: P4254. pFastBacBD-CDC37 BRAF D437-K722-X, V600E; His6 with pFastBac HT leader (TEV site) (N); made in house; host or cells: Sf9 (baculovirus; chaperone CDC37 co-expressed)

Flt4 = target: T11, Flt4 (Homo sapiens, UniProt P35916); experiment: AlphaScreen kinase assay, Flt4; settings: read-out: IC50, activity toward kinase Flt4
T11 construct: purchased ProQinase GmbH (Freiburg, Germany)
Procedure, shortened: as §3

Itk = target: T12, Itk (Homo sapiens, UniProt Q08881); experiment: AlphaScreen kinase assay, Itk; settings: read-out: IC50, activity toward kinase Itk
T12 sequence (Q08881 1-620): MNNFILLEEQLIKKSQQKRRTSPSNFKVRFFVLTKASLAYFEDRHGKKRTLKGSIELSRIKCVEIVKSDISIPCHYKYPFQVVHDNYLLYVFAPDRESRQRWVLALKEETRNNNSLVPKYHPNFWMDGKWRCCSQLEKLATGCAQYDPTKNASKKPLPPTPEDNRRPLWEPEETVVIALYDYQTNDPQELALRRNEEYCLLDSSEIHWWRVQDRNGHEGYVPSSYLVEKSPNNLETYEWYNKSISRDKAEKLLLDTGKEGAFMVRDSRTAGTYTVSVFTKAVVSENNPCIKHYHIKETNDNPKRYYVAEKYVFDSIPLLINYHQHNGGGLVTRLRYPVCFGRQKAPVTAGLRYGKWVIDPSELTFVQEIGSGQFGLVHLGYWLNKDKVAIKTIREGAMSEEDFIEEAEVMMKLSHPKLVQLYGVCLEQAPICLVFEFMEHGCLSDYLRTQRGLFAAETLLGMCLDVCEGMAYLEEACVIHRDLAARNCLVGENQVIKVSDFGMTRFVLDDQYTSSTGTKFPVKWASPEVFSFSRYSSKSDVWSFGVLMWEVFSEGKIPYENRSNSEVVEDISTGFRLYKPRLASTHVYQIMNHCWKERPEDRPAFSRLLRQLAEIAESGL
Description: as §1, §2

Abl = target: T13, Abl (Homo sapiens, UniProt P00519); experiment: AlphaScreen kinase assay, Abl; settings: read-out: activity toward kinase Abl, IC50
T13 construct: P1121. pET-SPEC BI-PTP Abl G227-V515-X; His6 (N); made in house; host or cells: E. coli (PTP1B co-expressed)
T13 sequence (P00519 with tags, fused parts or gaps): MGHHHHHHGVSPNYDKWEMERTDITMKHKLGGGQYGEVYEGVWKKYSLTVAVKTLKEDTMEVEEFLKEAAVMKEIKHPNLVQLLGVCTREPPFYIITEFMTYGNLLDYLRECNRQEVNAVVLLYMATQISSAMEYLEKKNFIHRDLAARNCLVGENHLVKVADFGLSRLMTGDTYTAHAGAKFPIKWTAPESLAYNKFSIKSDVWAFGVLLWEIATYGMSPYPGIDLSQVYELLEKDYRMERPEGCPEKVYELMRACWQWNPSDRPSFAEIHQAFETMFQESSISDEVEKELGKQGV
Procedure, shortened: as §3

Jnk3 = target: T14, Jnk3 (Homo sapiens, UniProt P53779); experiment: AlphaScreen kinase assay, Jnk3; settings: read-out: IC50, activity toward kinase Jnk3
T14 construct: purchased Upstate Biotechnology

Jnk1 = target: T15, Jnk1 (Homo sapiens, UniProt P45983); experiment: AlphaScreen kinase assay, Jnk1; settings: read-out: IC50, activity toward kinase Jnk1
T15 construct: purchased Upstate Biotechnology

Met = target: T16, Met (Homo sapiens, UniProt P08581); experiment: AlphaScreen kinase assay, Met; settings: read-out: IC50, activity toward kinase Met
T16 construct: P1818.pETN6 BI-PTP MET G1056-G1364-X WT; His6 (N); made in house; host or cells: E. coli (PTP1B co-expressed)
Procedure, shortened: as §3

c-Raf-1 = target: T17, c-Raf-1 (Homo sapiens, UniProt P04049); experiment: AlphaScreen kinase assay, c-Raf-1; settings: read-out: IC50, activity toward kinase c-Raf-1
T17 construct: purchased Upstate Biotechnology

Fms = target: T18, Fms (Homo sapiens, UniProt P07333); experiment: AlphaScreen kinase assay, Fms; settings: read-out: IC50, activity toward kinase Fms
T18 construct: purchased Upstate Biotechnology

Akt3 = Akt3 (Homo sapiens, UniProt Q9Y243); experiment: AlphaScreen kinase assay, Akt3; settings: read-out: IC50, activity toward kinase Akt3
Procedure, shortened: as §3

Fak = target: T19, Fak (Homo sapiens, UniProt Q05397); experiment: AlphaScreen kinase assay, Fak; settings: read-out: IC50, activity toward kinase Fak
T19 construct: P1358.pFastBacHtb FAK S411-Q686-X; His6 with pFastBacHTb leader (TEV site) (N); made in house; host or cells: Sf9 (baculovirus)

T10 sequence (P15056 with tags, fused parts or gaps V600E): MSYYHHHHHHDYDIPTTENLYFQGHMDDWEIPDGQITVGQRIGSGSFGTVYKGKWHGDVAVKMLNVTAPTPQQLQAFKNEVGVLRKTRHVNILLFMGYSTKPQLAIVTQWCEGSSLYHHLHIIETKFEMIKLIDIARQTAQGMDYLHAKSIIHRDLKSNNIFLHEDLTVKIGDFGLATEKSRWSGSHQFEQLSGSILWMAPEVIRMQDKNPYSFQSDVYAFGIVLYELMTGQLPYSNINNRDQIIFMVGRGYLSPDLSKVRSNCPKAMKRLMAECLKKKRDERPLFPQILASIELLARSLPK
T2 sequence (P35968 20-1356): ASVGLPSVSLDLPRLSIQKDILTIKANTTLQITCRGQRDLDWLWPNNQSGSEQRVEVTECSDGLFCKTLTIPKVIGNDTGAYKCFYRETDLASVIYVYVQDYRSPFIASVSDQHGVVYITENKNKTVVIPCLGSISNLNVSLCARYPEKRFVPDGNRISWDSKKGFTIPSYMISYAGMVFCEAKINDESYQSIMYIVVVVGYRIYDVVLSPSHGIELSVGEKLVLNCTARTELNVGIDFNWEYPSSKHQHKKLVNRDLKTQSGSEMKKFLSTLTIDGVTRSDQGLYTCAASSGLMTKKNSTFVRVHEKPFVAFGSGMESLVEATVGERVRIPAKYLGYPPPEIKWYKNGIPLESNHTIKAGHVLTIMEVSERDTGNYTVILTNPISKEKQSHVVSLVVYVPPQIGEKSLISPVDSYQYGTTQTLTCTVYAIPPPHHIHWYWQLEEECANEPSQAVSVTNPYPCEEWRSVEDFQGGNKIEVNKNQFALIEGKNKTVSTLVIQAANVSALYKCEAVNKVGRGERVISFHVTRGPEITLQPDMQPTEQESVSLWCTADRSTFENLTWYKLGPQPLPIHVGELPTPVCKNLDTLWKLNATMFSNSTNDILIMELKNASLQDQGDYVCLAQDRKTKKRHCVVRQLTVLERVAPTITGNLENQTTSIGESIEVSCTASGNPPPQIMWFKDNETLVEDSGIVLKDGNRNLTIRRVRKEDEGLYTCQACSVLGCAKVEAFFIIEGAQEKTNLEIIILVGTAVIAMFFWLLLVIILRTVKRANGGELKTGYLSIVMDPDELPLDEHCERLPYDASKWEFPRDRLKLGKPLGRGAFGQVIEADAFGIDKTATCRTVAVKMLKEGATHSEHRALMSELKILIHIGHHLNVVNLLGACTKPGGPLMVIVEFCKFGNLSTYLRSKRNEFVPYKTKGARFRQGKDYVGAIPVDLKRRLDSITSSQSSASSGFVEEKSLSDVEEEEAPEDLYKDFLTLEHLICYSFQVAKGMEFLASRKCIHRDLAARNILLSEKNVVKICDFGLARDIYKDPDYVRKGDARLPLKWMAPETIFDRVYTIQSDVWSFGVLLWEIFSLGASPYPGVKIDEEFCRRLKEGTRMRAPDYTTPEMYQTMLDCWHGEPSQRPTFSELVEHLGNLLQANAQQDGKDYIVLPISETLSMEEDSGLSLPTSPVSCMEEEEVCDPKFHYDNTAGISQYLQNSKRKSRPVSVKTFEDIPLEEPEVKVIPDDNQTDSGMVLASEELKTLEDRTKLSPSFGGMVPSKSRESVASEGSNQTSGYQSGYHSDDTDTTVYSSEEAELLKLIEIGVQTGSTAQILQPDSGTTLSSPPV
T14 sequence (P53779 whole entry): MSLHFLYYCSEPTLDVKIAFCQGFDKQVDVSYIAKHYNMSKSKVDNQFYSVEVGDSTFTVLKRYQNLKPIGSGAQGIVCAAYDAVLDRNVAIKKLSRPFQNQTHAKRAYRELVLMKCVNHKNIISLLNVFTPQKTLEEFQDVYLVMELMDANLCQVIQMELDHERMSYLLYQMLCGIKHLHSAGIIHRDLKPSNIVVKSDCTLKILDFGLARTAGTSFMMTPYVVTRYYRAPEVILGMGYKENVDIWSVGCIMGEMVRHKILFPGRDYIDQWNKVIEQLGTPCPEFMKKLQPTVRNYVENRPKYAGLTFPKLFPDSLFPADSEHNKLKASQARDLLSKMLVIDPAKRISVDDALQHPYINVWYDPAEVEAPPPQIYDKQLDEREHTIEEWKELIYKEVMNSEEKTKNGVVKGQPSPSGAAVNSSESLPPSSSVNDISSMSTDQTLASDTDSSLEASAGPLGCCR
T9 sequence (P10721 with tags, fused parts or gaps): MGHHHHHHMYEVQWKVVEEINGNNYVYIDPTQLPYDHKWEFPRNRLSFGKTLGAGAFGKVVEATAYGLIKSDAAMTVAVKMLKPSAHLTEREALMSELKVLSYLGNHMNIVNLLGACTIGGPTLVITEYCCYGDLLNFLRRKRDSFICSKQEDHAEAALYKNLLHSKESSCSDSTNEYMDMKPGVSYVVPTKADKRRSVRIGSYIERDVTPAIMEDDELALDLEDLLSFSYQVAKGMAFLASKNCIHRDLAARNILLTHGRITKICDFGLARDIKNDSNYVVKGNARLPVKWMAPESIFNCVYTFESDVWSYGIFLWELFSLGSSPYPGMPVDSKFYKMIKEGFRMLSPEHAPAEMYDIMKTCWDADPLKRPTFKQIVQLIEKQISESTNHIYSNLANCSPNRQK
Chain of Plk1 (P53350 whole entry): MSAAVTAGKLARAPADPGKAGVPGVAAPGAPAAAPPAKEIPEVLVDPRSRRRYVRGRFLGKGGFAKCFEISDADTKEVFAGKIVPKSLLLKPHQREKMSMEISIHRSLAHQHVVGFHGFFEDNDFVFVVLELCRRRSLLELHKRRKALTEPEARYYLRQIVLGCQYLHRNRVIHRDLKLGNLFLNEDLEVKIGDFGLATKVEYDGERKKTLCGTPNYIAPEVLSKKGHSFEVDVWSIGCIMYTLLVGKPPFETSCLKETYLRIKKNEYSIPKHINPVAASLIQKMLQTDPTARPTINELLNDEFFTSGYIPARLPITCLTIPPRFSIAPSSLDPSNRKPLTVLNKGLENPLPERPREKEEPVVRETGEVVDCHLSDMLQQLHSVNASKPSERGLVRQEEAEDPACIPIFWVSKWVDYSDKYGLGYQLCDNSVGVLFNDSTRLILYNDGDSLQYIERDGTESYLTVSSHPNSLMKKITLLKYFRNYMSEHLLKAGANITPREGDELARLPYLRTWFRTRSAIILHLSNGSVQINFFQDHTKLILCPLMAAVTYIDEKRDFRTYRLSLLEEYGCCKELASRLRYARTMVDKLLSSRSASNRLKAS
T6 sequence (P11362 458-765 C488A/C584S): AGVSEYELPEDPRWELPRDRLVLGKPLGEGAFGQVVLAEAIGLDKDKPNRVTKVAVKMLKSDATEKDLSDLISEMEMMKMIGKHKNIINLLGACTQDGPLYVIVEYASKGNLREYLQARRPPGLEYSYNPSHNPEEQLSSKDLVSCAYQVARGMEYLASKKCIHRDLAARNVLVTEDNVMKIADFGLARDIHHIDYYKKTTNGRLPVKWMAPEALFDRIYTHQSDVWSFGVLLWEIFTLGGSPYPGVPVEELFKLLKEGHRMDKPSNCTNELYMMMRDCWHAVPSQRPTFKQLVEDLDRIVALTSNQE
T7 sequence (P15056 whole entry): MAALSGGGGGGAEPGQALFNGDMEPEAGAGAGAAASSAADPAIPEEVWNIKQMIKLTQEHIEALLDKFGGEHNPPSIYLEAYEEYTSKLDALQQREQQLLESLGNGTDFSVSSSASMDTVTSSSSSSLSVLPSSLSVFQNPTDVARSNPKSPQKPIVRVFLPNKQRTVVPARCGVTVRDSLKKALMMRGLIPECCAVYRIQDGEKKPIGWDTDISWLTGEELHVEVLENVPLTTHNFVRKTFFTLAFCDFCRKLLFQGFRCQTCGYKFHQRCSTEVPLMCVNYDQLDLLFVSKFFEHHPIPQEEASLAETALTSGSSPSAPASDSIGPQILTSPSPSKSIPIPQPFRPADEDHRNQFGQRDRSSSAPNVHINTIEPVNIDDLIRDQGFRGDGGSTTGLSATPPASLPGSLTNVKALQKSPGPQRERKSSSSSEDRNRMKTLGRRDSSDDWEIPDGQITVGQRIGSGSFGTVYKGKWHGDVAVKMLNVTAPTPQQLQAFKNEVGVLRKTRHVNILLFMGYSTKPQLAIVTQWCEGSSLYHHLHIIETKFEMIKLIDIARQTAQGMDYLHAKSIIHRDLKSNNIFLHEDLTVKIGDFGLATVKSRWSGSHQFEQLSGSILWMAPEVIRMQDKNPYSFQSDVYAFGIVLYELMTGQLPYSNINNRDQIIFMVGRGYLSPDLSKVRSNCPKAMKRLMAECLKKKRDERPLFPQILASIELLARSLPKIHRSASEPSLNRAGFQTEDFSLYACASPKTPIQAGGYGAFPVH
T16 sequence (P08581 with tags, fused parts or gaps): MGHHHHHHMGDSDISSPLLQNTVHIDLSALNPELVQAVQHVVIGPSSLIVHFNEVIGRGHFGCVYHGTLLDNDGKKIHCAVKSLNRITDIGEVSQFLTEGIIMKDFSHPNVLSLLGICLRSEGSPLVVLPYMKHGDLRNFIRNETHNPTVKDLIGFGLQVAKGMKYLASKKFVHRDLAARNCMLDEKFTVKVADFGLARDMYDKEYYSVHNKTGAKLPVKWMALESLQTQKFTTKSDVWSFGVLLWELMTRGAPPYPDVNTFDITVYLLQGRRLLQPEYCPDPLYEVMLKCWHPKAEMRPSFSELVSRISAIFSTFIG
T15 sequence (P45983 whole entry): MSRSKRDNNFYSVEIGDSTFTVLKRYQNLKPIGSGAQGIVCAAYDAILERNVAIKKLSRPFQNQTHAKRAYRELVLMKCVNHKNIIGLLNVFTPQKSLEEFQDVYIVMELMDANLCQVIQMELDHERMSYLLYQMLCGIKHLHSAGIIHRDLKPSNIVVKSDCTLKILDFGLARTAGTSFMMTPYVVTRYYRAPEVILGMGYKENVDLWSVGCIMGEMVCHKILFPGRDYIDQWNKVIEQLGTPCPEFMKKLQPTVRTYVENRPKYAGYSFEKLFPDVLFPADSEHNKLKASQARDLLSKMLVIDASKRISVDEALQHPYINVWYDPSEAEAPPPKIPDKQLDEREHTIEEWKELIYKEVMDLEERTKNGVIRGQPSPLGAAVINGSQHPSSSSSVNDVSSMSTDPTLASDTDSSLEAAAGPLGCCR

pIC50 (Plk1): ≥ 5.00 | pIC50 (Btk): ≥ 5.00 | pIC50 (Kdr): ≥ 5.00 | pIC50 (Ret): ≥ 5.00
Compound: O=C(c1ccc(Cl)cc1)c1c[nH]c2nccc(-c3cccnc3)c12 [Compound P-0113]

pIC50 (Plk1): ≥ 5.00 | pIC50 (Ret): ≥ 5.00
Compound: Clc1ccc(Cc2c[nH]c3nccc(-c4ccccc4)c23)cn1 [Compound P-0286]

pIC50 (Plk1): ≥ 5.00
Compound: Cc1cc(C(=O)c2c[nH]c3nccc(-c4cccc(N)c4)c23)n(C)n1 [Compound P-0332]

pIC50 (Plk1): ≥ 5.00 | pIC50 (Stk6): ≥ 5.00
Compound: O=S(=O)(NCc1ccnc2[nH]ccc12)c1ccc(F)c(F)c1 [Compound P-0345]

pIC50 (Plk1): ≥ 5.00
Compound: O=[N+]([O-])c1ccc(S(=O)(=O)NCc2ccnc3[nH]ccc23)cc1 [Compound P-0366]

pIC50 (Plk1): ≥ 5.00
Compound: O=[N+]([O-])c1cccc(S(=O)(=O)NCc2ccnc3[nH]ccc23)c1 [Compound P-0480]

pIC50 (Plk1): ≥ 5.00
Compound: O=C(O)CCc1c[nH]c2ncccc12 [Compound P-0490]

pIC50 (Jnk2): ≥ 5.00 | pIC50 (FGFR1): ≥ 5.00 | pIC50 (B-Raf): ≥ 5.00 | pIC50 (Kdr): ≥ 5.00 | pIC50 (Flt1): ≥ 5.00 | pIC50 (Kit): ≥ 5.00 | pIC50 (B-Raf V600E): ≥ 5.00 | pIC50 (Flt4): ≥ 5.00 | pIC50 (Itk): ≥ 5.00 | pIC50 (Abl): ≥ 5.00 | pIC50 (Jnk3): ≥ 5.00 | pIC50 (Ret): ≥ 5.00 | pIC50 (Jnk1): ≥ 5.00
Compound: COc1cccc(C(=O)c2c[nH]c3ncc(-c4cccc(N)c4)cc23)c1 [Compound P-0579]

pIC50 (Plk1): ≥ 5.00
Compound: O=S(=O)(Cc1ccccc1)NCc1c[nH]c2ncccc12 [Compound P-0581]

pIC50 (Met): ≥ 5.00 | pIC50 (B-Raf): ≥ 5.00 | pIC50 (c-Raf-1): ≥ 5.00 | pIC50 (Kit): ≥ 5.00 | pIC50 (B-Raf V600E): ≥ 5.00 | pIC50 (Itk): ≥ 5.00 | pIC50 (Fms): ≥ 5.00 | pIC50 (Jnk3): ≥ 5.00 | pIC50 (Ret): ≥ 5.00
Compound: Oc1cccc(Cc2c[nH]c3ncc(-c4cccnc4)cc23)c1F [Compound P-0778, 2-Fluoro-3-(5-pyridin-3-yl-1H-pyrrolo[2,3-b]pyridin-3-ylmethyl)-phenol]

pIC50 (Met): ≥ 5.00 | pIC50 (FGFR1): ≥ 5.00 | pIC50 (Akt3): ≥ 5.00 | pIC50 (Kdr): ≥ 5.00 | pIC50 (Flt1): ≥ 5.00 | pIC50 (Kit): ≥ 5.00 | pIC50 (B-Raf V600E): ≥ 5.00 | pIC50 (Itk): ≥ 5.00 | pIC50 (Jnk3): ≥ 5.00 | pIC50 (Fak): ≥ 5.00
Compound: CCN(CC)c1ccc(Nc2cnc3[nH]ccc3c2)cc1 [Compound P-0951]

pIC50 (Plk1): ≥ 5.00 | pIC50 (B-Raf V600E): ≥ 5.00
Compound: O=S(=O)(Cc1cccc(Cl)c1)NCc1c[nH]c2ncccc12 [Compound P-1138]
